# Entries after “also recorded” stand apart in the source; their conditions may differ.
# What was measured:
# trout fingerlings [1] = assay: Tests of known dechlorination agents for use with biological detector
# From the text: The inventors carried out a number of experiments to test the various known dechlorination agents mentioned above.
# [2] = Maintenance of reducing power of stored ascorbic acid solution over time (iodometry, FIG. 1); details: for Reducing activity of degradation by-product: compared with initial ascorbic acid
# Fario trout fingerlings = assay: Validation of treatment installation coupled with TruitoSEM biological detector
# [3] = Effect of excess ascorbic acid on pH, dissolved oxygen and residual chlorine in artificially chlorinated distributed water; details: stoichiometric or slight excess of reducing agent
# From the text: In order to ensure effective dechlorination, it is advantageous to control the system using a chlorine analyzer (a metering pump controlled by a chlorine analyzer). However, to avoid this metering pump control, it is possible to work with a slight excess of ascorbic acid. […] Experiments were thus carried out in this area on artificially chlorinated distributed water to verify these effects.
# It should be noted that the pH still remains in a range favorable to the survival of trout fingerlings regardless of the initial pH of the distributed water.
# trout fingerlings [4] = assay: Flowing dechlorination tests in the presence of trout fingerlings; format: in vivo; details: continuous period of several days
# Method: The dechlorinated water flowing out of the mixer directly feeds the aquarium, which is equipped with two probes to measure dissolved oxygen, pH and temperature in real time. The aquarium is maintained under permanent aeration so that stress is not induced in the fish due to a lack of dissolved oxygen.
# These flowing dechlorination tests were then carried out in the presence of trout fingerlings, for a continuous period of several days.
# [5] = Flowing dechlorination test without trout fingerlings (metering pump, in-line mixer, FIG. 2)
# trout fingerlings [6] = details: ascorbic acid 75 mg/l, 6 trout fingerlings, 15 days
# From the text: As for the TruitoSEM, the aquarium was maintained under constant aeration.
# trout fingerlings [7] = assay: Toxicity of chlorine for trout fingerlings: aquarium with increasing concentrations of sodium hypochlorite; format: in vivo; details: maintained 8 hours
# Method: This toxicity of chlorine for trout fingerlings has also been shown by the inventors. Twelve trout fingerlings were maintained in an aquarium containing water chlorinated with increasing concentrations of sodium hypochlorite. Each chlorine concentration was maintained for a period of 8 hours. The aquarium was placed under permanent aeration using an air pump equipped with a porous diffuser. The following table presents the results observed during this experiment.
# The following table presents the results observed during this experiment. ([Cl2]=chlorine disinfectant expressed in equivalent Cl2.)
structure (smiles),measurement,setting,value
"O=S([O-])O.[Na+] [sodium bisulfite, sodium bisulfite (NaHSO3)]",Outcome for trout fingerlings,trout fingerlings [1]; various implementation conditions,death of the trout fingerlings
"O=C1O[C@H]([C@@H](O)CO)C([O-])=C1O.[Na+] [Sodium ascorbate, sodium ascorbate]",Stability of reagent,trout fingerlings [1],lack of stability
O=C1O[C@H]([C@@H](O)CO)C(=O)C1=O [dehydroascorbic acid],Reducing activity of degradation by-product,[2],equivalent to that of the initial ascorbic acid
"O=C1O[C@H]([C@@H](O)CO)C(O)=C1O [ascorbic acid, L-ascorbic acid]",Mortality of biological indicators,"Fario trout fingerlings; 8 hours/day for twenty days, real operating conditions",did not generate any mortality
same,Elimination of chlorine in installation,"Fario trout fingerlings; in-flow 4.5 mg/l Cl2, water 160 l/h, 20% ascorbic acid 0.036 l/h, solution stored 0 to 60 days",complete neutralization
same,Residual chlorine concentration after treatment,[3],< 0.1 mg/L
same,Reduction in reducing power over time,"[2]; 10% ascorbic acid solution, darkness, approx. 20° C., after 35 days",−10%
same,Loss of reducing activity,"[2]; ascorbic acid after 60 days, FIG. 1",5%
same,Effectiveness of the product (chlorine elimination) after storage,"[2]; at least 20% (200 g/l) solution, after 60 days of use",approximately 95%
same,Physical signs and mobility of trout fingerlings,trout fingerlings [4],no abnormal physical signs and normal mobility
same,Ascorbic acid flow rate for effective dechlorination,[5]; 20% solution stored 60 days away from light at ambient temperature (R=3),0.036 L/h
same,Ascorbic acid flow rate for effective dechlorination,"[5]; 20% solution, t=0, optimal setting (R=2.5)",0.030 L/h
same,Decrease of speed of reaction with chlorine,[5]; ascorbic acid 60 days old,16%
same,Dechlorination yield,"[5]; initial chlorine 4.5 mg/l equivalent Cl2, 20% ascorbic acid flow rate 0.030 l/h (R=2.5)",~100%
same,Behavior of trout fingerlings,trout fingerlings [6],did not show any significant change in the behavior
OCl [sodium hypochlorite],Effects observed,trout fingerlings [7]; [Cl2] 0.25 mg/l,No effect.
same,Mortality % observed,"trout fingerlings [7]; [Cl2] 0.25 mg/l, 12 trout fingerlings",0%
same,Effects observed,trout fingerlings [7]; [Cl2] 0.70 mg/l,Reduction in mobility; also recorded: Accelerated ventilation
same,Mortality % observed,trout fingerlings [7]; [Cl2] 0.70 mg/l,10%
same,Effects observed,trout fingerlings [7]; [Cl2] 1.4 mg/l,Highly reduced mobility; also recorded: Loss of appetite; also recorded: Very high ventilation; also recorded: Reduction in the size of the iris
same,Mortality % observed,trout fingerlings [7]; [Cl2] 1.4 mg/l,60%
same,Effects observed,trout fingerlings [7]; [Cl2] 2.1 mg/l,Swimming on the side then on the back; also recorded: Death
same,Mortality % observed,trout fingerlings [7]; [Cl2] 2.1 mg/l,100%
CCC(=O)C=O [ethylglyoxal],Reducing activity of degradation by-product,[2],lessened reducing activity

# — US7531360B2, “Method of dechlorination treatment of flowing water, in particular upstream of a biological pollution detector” (Societe des Eaux de Marseille, priority 2005, dated 2009)
